Data as given in US20250304700A1, “ANTI-BLOOD DENDRITIC CELL ANTIGEN 2 ANTIBODIES AND USES THEREOF” (Biogen MA Inc., priority 2012, published 2025).
“And” between values parts separate entries of the source, which are not always exact repeats. Equal values may be shown once.

How the values were obtained:
[1] = tested on: cell surface BDCA2 on pDCs; experiment: BIIB059 titration in cynomolgus whole blood, anti-human IgG PE detection; assay type: binding, cynomolgus monkey; conditions: all cynomolgus monkeys
Experimental: The maximal values were taken from the values at the plateau in each assay (FIGS. 24 and 25).
Whole blood was drawn from twelve cynomolgus monkeys, once a week for three weeks total. […] MFI of PE was calculated with FlowJo software, and EC50 curves were generated in GraphPad Prism software.

[2] = tested on: BDCA2 on cynomolgus plasmacytoid dendritic cells; experiment: Flow cytometric whole blood assay, BIIB059 binding to cynomolgus pDCs; parameters: species or system cynomolgus monkey; conditions: Alexa647 labeled BIIB059, on ice
Experimental: Cynomolgus monkey (Toxikon, Inc, Bedford, MA) or human peripheral blood (Biogen Idec) were collected in sodium heparin collection tubes and maintained at room temperature. A FACS staining antibody cocktail for identifying pDCs was added to each whole blood aliquot, incorporating CD20, CD14, CD123 and HLA-DR antibodies. […] Blood was incubated on ice, protected from light, for 30 min. After 30 min., each 500 μL aliquot of whole blood (cyno) or 100 μL (human) was treated with 10 mL (cyno) or 2 mL (human) of 1× Easy Lyse Buffer (Leinco Technologies) that had been incubated at 37° C. for at least one hour. After a 10-15 min. incubation at room temperature, samples were centrifuged at 1400 rpm for 5 min. The supernatant was decanted, leaving only a pellet of white blood cells (WBC). Each WBC pellet was washed with 5 mL of FACS buffer (1% BSA+0.002% NaAzide+1 mM CaCl2)+1 mM MgCl2 in PBS), and centrifuged at 1400 rpm for 5 min. The supernatant was decanted, and each WBC pellet was resuspended in 200 μL of FACS buffer and transferred to a 96-well round bottom plate (Fisher Scientific). The plate was centrifuged at 1400 rpm for 5 min. The supernatant was dumped out of the plate, and each WBC pellet was washed with 200 μL of FACS buffer. […] Each WBC pellet was resuspended in 250 μL of FACS buffer and fluorescence intensity measured on a LSRII 4-color FACS machine. […]

[3] = tested on: BDCA2 receptor on pDCs; experiment: BDCA2 and bound BIIB059 on pDC surface after dosing cynomolgus monkeys; assay type: in vivo, cynomolgus monkey
Source text: At the same time point (1 hr), some free BDCA2 was observed (13%, 74%, 72% of baseline MFI).
EC10-50-90 curves were generated in GraphPad Prism software using a four-parameter fit.

BDCA2 receptor on pDCs, sequence (as listed by the source): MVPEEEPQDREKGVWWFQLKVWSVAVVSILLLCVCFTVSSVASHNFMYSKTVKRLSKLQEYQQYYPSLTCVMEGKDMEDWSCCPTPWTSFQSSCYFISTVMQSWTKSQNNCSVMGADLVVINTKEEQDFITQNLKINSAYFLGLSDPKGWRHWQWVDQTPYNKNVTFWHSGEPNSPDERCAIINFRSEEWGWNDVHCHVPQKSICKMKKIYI
cell surface BDCA2 on pDCs, sequence (as listed by the source): as above
BDCA2 on cynomolgus plasmacytoid dendritic cells, sequence (as listed by the source): as above

- EC50 of binding to pDCs [2]: 1-2 μg/mL
- BIIB059 on the pDC surface ([3]; IV 10 mg/kg or 1 mg/kg, from 1 hour post injection): no BIIB059 was detected on the surface
- free BDCA2 (BIIB059-A647 staining) ([3]; IV 10 mg/kg or 1 mg/kg, through 38 days, except monkey 5): no free BDCA2
- BIIB059 on the pDC surface ([3]; SC 0.2 mg/kg, at 1 hour, disappeared by 6 hours): briefly observed on the surface of pDCs
- EC10 (ug/mL), Mean ([3]; mean of all dosed monkeys): 0.064 µg/mL
- EC90 (ug/mL), Mean ([3]; mean of all dosed monkeys): 0.359 µg/mL
Substance: BIIB059: humanized IgG1 anti-BDCA2 antibody, mature heavy chain SEQ ID NO: 4 and mature light chain SEQ ID NO: 3
- concentration that saturates BDCA2 receptor binding [1]: 10 µg/mL
- EC10 (ug/mL), internalization of BDCA2 ([3]; IV 10 mg/kg, monkeys 3, 8, 10, 10 mg/kg): 0.100 µg/mL and 0.095 µg/mL and 0.114 µg/mL
- free BDCA2 receptor over time ([3]; SC 0.2 mg/kg): no free BDCA2 receptor was detected until day 14
